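Results reflect a 48-hour exposure of cells in 96-well plates to compound at five concentrations. Here, GI50 denotes the concentration required for 50% inhibition of growth.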 Calls of active or inactive are those of the source. No stated cut-off is given here; in the data, active = GI50 up to about 1.1 µM and inactive = higher.
Assays:
Experiment in all cases: growth of human tumour cells (NCI), 48 h
DMS-114 = tested on: DMS-114
786-0 = tested on: 786-0
DLD-1 = tested on: DLD-1
SF-295 = tested on: SF-295
DMS-273 = tested on: DMS-273
UO-31 = tested on: UO-31
M19-MEL = tested on: M19-MEL
ACHN = tested on: ACHN
CAKI-1 = tested on: CAKI-1
CCRF-CEM = tested on: CCRF-CEM
HT-29 = tested on: HT-29
SN12C = tested on: SN12C
KM-20L2 = tested on: KM-20L2
Malme-3M = tested on: Malme-3M
A549 = tested on: A549
RXF 631 = tested on: RXF 631
SW-620 = tested on: SW-620
OVCAR-5 = tested on: OVCAR-5
U-251 = tested on: U-251
NCI-H23 = tested on: NCI-H23
LOX IMVI = tested on: LOX IMVI
HCT-116 = tested on: HCT-116
HOP-62 = tested on: HOP-62
M14 = tested on: M14
HCC 2998 = tested on: HCC 2998
UACC-257 = tested on: UACC-257
OVCAR-3 = tested on: OVCAR-3
SF-268 = tested on: SF-268
K562 = tested on: K562
OVCAR-8 = tested on: OVCAR-8
SR = tested on: SR
LXFL 529 = tested on: LXFL 529
UACC-62 = tested on: UACC-62
HOP-92 = tested on: HOP-92
COLO 205 = tested on: COLO 205
MOLT-4 = tested on: MOLT-4
SK-OV-3 = tested on: SK-OV-3
HL-60 = tested on: HL-60
OVCAR-4 = tested on: OVCAR-4
HOP-18 = tested on: HOP-18
NCI-H226 = tested on: NCI-H226
TK-10 = tested on: TK-10
A498 = tested on: A498
SNB-19 = tested on: SNB-19
HCT-15 = tested on: HCT-15
IGROV-1 = tested on: IGROV-1
SK-MEL-28 = tested on: SK-MEL-28
RPMI-8226 = tested on: RPMI-8226
NCI-H460 = tested on: NCI-H460
SK-MEL-5 = tested on: SK-MEL-5
XF498 = tested on: XF498
SF-539 = tested on: SF-539
NCI-H522 = tested on: NCI-H522
SNB-78 = tested on: SNB-78
SK-MEL-2 = tested on: SK-MEL-2
EKVX = tested on: EKVX
KM12 = tested on: KM12
RXF 393 = tested on: RXF 393
SNB-75 = tested on: SNB-75

Compound: COC(=O)C12CC(C3CC31)C1CC12 (stereo unspecified)
- GI50 (DMS-114): > 100 µM (inactive)
- GI50 (786-0): > 100 µM (inactive)
- GI50 (DLD-1): > 100 µM (inactive)
- GI50 (SF-295): > 100 µM (inactive)
- GI50 (DMS-273): > 100 µM (inactive)
- GI50 (UO-31): > 100 µM (inactive)
- GI50 (M19-MEL): > 100 µM (inactive)
- GI50 (ACHN): > 100 µM (inactive)
- GI50 (CAKI-1): > 100 µM (inactive)
- GI50 (CCRF-CEM): > 100 µM (inactive)
- GI50 (HT-29): > 100 µM (inactive)
- GI50 (SN12C): > 100 µM (inactive)
- GI50 (KM-20L2): > 100 µM (inactive)
- GI50 (Malme-3M): > 100 µM (inactive)
- GI50 (A549): > 100 µM (inactive)
- GI50 (RXF 631): > 100 µM (inactive)
- GI50 (SW-620): > 100 µM (inactive)
- GI50 (OVCAR-5): > 100 µM (inactive)
- GI50 (U-251): > 100 µM (inactive)
- GI50 (NCI-H23): > 100 µM (inactive)
- GI50 (LOX IMVI): > 100 µM (inactive)
- GI50 (HCT-116): > 100 µM (inactive)
- GI50 (HOP-62): > 100 µM (inactive)
- GI50 (M14): > 100 µM (inactive)
- GI50 (HCC 2998): > 100 µM (inactive)
- GI50 (UACC-257): > 100 µM (inactive)
- GI50 (OVCAR-3): > 100 µM (inactive)
- GI50 (SF-268): > 100 µM (inactive)
- GI50 (K562): > 100 µM (inactive)
- GI50 (OVCAR-8): > 100 µM (inactive)
- GI50 (SR): > 100 µM (inactive)
- GI50 (LXFL 529): > 100 µM (inactive)
- GI50 (UACC-62): > 100 µM (inactive)
- GI50 (HOP-92): 59 µM (inactive)
- GI50 (COLO 205): > 100 µM (inactive)
- GI50 (MOLT-4): > 100 µM (inactive)
- GI50 (SK-OV-3): > 100 µM (inactive)
- GI50 (HL-60): > 100 µM (inactive)
- GI50 (OVCAR-4): > 100 µM (inactive)
- GI50 (HOP-18): > 100 µM (inactive)
- GI50 (NCI-H226): > 100 µM (inactive)
- GI50 (TK-10): > 100 µM (inactive)
- GI50 (A498): > 100 µM (inactive)
- GI50 (SNB-19): > 100 µM (inactive)
- GI50 (HCT-15): > 100 µM
- GI50 (IGROV-1): > 100 µM (inactive)
- GI50 (SK-MEL-28): > 100 µM (inactive)
- GI50 (RPMI-8226): > 100 µM (inactive)
- GI50 (NCI-H460): > 100 µM (inactive)
- GI50 (SK-MEL-5): > 100 µM (inactive)

Compound: N#C/C(=C\c1cc(OCc2ccccc2)c(OCc2ccccc2)cn1)C(N)=O
- GI50 (XF498): > 100 µM (inactive)
- GI50 (SF-539): > 100 µM (inactive)
- GI50 (DMS-114): 81.3 µM (inactive)
- GI50 (786-0): > 100 µM (inactive)
- GI50 (DLD-1): > 100 µM (inactive)
- GI50 (SF-295): > 100 µM (inactive)
- GI50 (UO-31): > 100 µM (inactive)
- GI50 (M19-MEL): > 100 µM (inactive)
- GI50 (ACHN): > 100 µM (inactive)
- GI50 (NCI-H522): 19.1 µM (inactive)
- GI50 (CAKI-1): > 100 µM (inactive)
- GI50 (CCRF-CEM): 32.1 µM (inactive)
- GI50 (HT-29): > 100 µM (inactive)
- GI50 (SN12C): > 100 µM (inactive)
- GI50 (KM-20L2): > 100 µM (inactive)
- GI50 (SNB-78): > 100 µM (inactive)
- GI50 (Malme-3M): > 100 µM (inactive)
- GI50 (A549): > 100 µM (inactive)
- GI50 (RXF 631): > 100 µM (inactive)
- GI50 (SW-620): > 100 µM (inactive)
- GI50 (OVCAR-5): > 100 µM (inactive)
- GI50 (U-251): > 100 µM (inactive)
- GI50 (NCI-H23): > 100 µM (inactive)
- GI50 (LOX IMVI): 30.5 µM (inactive)
- GI50 (HCT-116): 35.5 µM (inactive)
- GI50 (SK-MEL-2): > 100 µM (inactive)
- GI50 (HOP-62): > 100 µM (inactive)
- GI50 (EKVX): > 100 µM (inactive)
- GI50 (M14): > 100 µM (inactive)
- GI50 (HCC 2998): > 100 µM (inactive)
- GI50 (UACC-257): > 100 µM (inactive)
- GI50 (OVCAR-3): > 100 µM (inactive)
- GI50 (KM12): > 100 µM (inactive)
- GI50 (SF-268): > 100 µM (inactive)
- GI50 (K562): 26.2 µM (inactive)
- GI50 (OVCAR-8): > 100 µM (inactive)
- GI50 (LXFL 529): > 100 µM (inactive)
- GI50 (UACC-62): > 100 µM (inactive)
- GI50 (HOP-92): 85.7 µM (inactive)
- GI50 (COLO 205): > 100 µM (inactive)
- GI50 (RXF 393): > 100 µM (inactive)
- GI50 (MOLT-4): 23.3 µM (inactive)
- GI50 (SK-OV-3): > 100 µM (inactive)
- GI50 (HL-60): 16 µM (inactive)
- GI50 (OVCAR-4): > 100 µM (inactive)
- GI50 (NCI-H226): > 100 µM (inactive)
- GI50 (TK-10): > 100 µM (inactive)
- GI50 (A498): > 100 µM (inactive)
- GI50 (SNB-19): > 100 µM (inactive)
- GI50 (SNB-75): 36.7 µM (inactive)
- GI50 (HCT-15): > 100 µM
- GI50 (IGROV-1): > 100 µM (inactive)
- GI50 (SK-MEL-28): > 100 µM (inactive)
- GI50 (RPMI-8226): 36.6 µM (inactive)
- GI50 (NCI-H460): > 100 µM (inactive)
- GI50 (SK-MEL-5): > 100 µM (inactive)

Compound: Cc1cccc(C(C)C)c1NC(=O)C(=O)C(C(=O)c1ccccc1F)C1OC(=O)c2ccccc21 (stereo unspecified)
- GI50 (XF498): 10.4 µM (inactive)
- GI50 (SF-539): 8.28 µM (inactive)
- GI50 (DMS-114): 10.2 µM (inactive)
- GI50 (786-0): 15.7 µM (inactive)
- GI50 (DLD-1): 14.8 µM (inactive)
- GI50 (DMS-273): 19 µM (inactive)
- GI50 (UO-31): 16.8 µM (inactive)
- GI50 (M19-MEL): 11.5 µM (inactive)
- GI50 (ACHN): 36.4 µM (inactive)
- GI50 (NCI-H522): 13.8 µM (inactive)
- GI50 (CAKI-1): 31.5 µM (inactive)
- GI50 (CCRF-CEM): 6.19 µM (inactive)
- GI50 (HT-29): 29.6 µM (inactive)
- GI50 (SN12C): 16.6 µM (inactive)
- GI50 (KM-20L2): 29.2 µM (inactive)
- GI50 (Malme-3M): 9.82 µM (inactive)
- GI50 (A549): 37.5 µM (inactive)
- GI50 (RXF 631): 18.6 µM (inactive)
- GI50 (SW-620): 24.5 µM (inactive)
- GI50 (OVCAR-5): 40 µM (inactive)
- GI50 (U-251): 7.16 µM (inactive)
- GI50 (NCI-H23): 15 µM (inactive)
- GI50 (LOX IMVI): 13.4 µM (inactive)
- GI50 (HCT-116): 13.6 µM (inactive)
- GI50 (SK-MEL-2): 15.7 µM (inactive)
- GI50 (HOP-62): 15.8 µM (inactive)
- GI50 (EKVX): 32.7 µM (inactive)
- GI50 (M14): 16.8 µM (inactive)
- GI50 (HCC 2998): 13.7 µM (inactive)
- GI50 (UACC-257): 13 µM (inactive)
- GI50 (OVCAR-3): 14.4 µM (inactive)
- GI50 (KM12): 19.2 µM (inactive)
- GI50 (SF-268): 9.64 µM (inactive)
- GI50 (K562): 20.4 µM (inactive)
- GI50 (OVCAR-8): 16.5 µM (inactive)
- GI50 (LXFL 529): 11.9 µM (inactive)
- GI50 (UACC-62): 10.4 µM (inactive)
- GI50 (HOP-92): 23.4 µM (inactive)
- GI50 (COLO 205): 21.1 µM (inactive)
- GI50 (RXF 393): 11.4 µM (inactive)
- GI50 (MOLT-4): 4.73 µM (inactive)
- GI50 (SK-OV-3): 18.9 µM (inactive)
- GI50 (OVCAR-4): 21.8 µM (inactive)
- GI50 (HOP-18): 3.59 µM (inactive)
- GI50 (NCI-H226): 3.25 µM (inactive)
- GI50 (TK-10): 39.6 µM (inactive)
- GI50 (A498): 23.7 µM (inactive)
- GI50 (SNB-19): 10.8 µM (inactive)
- GI50 (SNB-75): 9.75 µM (inactive)
- GI50 (HCT-15): 20.5 µM
- GI50 (IGROV-1): 24.8 µM (inactive)
- GI50 (SK-MEL-28): 14.4 µM (inactive)
- GI50 (RPMI-8226): 4.78 µM (inactive)
- GI50 (NCI-H460): 24.6 µM (inactive)
- GI50 (SK-MEL-5): 14.1 µM (inactive)

From ChEMBL document CHEMBL1201862, “PubChem BioAssay data set” (2004)
